Patent US12234233B2, “Crystal form of phosphodiesterase inhibitor, preparation method therefor and use thereof” (TRANSTHERA SCIENCES (NANJING), INC., priority 2019, dated 2025)

Assay: Solubility in test solutions at different pHs and water
Format: physicochemical
Details: 37° C.
Procedure: Test substances: the compound of formula (I) was prepared by example 1 of the present invention, the crystal form I was prepared by example 2 of the present invention, the crystal form II was prepared by example 16 of the present invention, the crystal form III was prepared by example 20 of the present invention, the crystal form IV was prepared by example 24 of the present invention, the crystal form V was prepared by example 25 of the present invention, the crystal form VI was prepared by example 27 of the present invention, and the crystal form VII was prepared by example 31 of the present invention.
Preparation of Buffered Salt Solutions at Different pHs:
hydrochloric acid solution at pH 1.0:9 ml of hydrochloric acid was pipetted, and water was added for dilution to 1000 ml; the mixture was mixed homogeneously to obtain a hydrochloric acid solution at pH 1.03. Phosphate buffered solution at pH 4.5:1.56 g of sodium dihydrogen phosphate dihydrate was weighed, and 200 ml of water was added to obtain a phosphate buffered solution at pH 4.50. Phosphate buffered solution at pH 6.8:1.56 g of sodium dihydrogen phosphate dihydrate was weighed, and 200 ml of water was added; and the mixture was adjusted to pH 6.80 with 1 mol/L sodium hydroxide solution.
preparation of buffered solutions at different pHs (samples for determining solubility):
50 mg of each test substance was weighed, and 5 ml of the hydrochloric acid solution (pH 1.0) was added; and the mixture was mixed homogeneously with shaking. About 2.5 mg of each test substance was weighed, and 5 ml of the phosphate buffered solution (pH 4.5), 5 ml of the phosphate buffered solution (pH 6.8), and 5 ml of ultrapure water were added, respectively; the mixture was mixed homogeneously with shaking, and then placed in a 37° C. water bath shaker for shaking; the samples were collected at 24 hours and subjected to centrifugation; and the supernatant was taken and directly injected (if the solubility was high, the supernatant was diluted with a 0.1 mol/L hydrochloric acid solution to an appropriate multiple and then injected).
The solubility of the samples was quantitatively calculated according to the single-point external standard method.

**Q.** Which results are given for `CCc1cc2c(N3CCC(C)(OC)CC3)c(C#N)c(=O)[nH]c2cn1` [Crystal form I, 6-ethyl-4-(4-methoxy-4-methylpiperidin-1-yl)-2-oxo-1,2-dihydro-1,7-diazanaphthal ene-3-carbonitrile]?
**A.** 24-hour solubility (Water): 0.11 mg/mL; 24-hour solubility (pH 1.0 hydrochloric acid solution): 8.6 mg/mL; 24-hour solubility (pH 4.5 phosphate buffered solution): 0.13 mg/mL; 24-hour solubility (pH 6.8 phosphate buffered solution): 0.11 mg/mL
